Measurements published in a melting point compilation (Tetko et al.; mined from patent text by program, amines drawn as free bases though some values may be those of a salt).

SMILES	melting point [°C]
Cc1cc2c(cc1Br)-c1cc(C)c(Br)c(C)c1OP2(=O)O	240
O=C(O)CNC(=O)NC(CSC(=O)Nc1ccccc1)Cc1ccccc1 (stereo unspecified)	179 to 181
Cc1ccc(-c2nc3ccccc3o2)cc1	113 to 114
COc1cccc(C=NNc2ncc(COc3cccc(C(=O)Nc4ccc(C(C)C)c(C)c4)c3)c3ccccc23)c1	125 to 129
COc1ccc(-c2c(CO)c(CO)c3sc4ccccc4n23)cc1	156 to 157
CC(C)CC(=O)Nc1cccc(-c2ccnc3c(-c4cccc(C=O)c4)cnn23)c1	163 to 165
CCCCCCCCc1nc2c(N)nc3ccccc3c2n1CCOCC#Cc1ccccc1	138 to 139
COC(=O)CC(C)C1CCC2C3CC=C4CC(O)CC(O)C4(C)C3CCC12C (stereo unspecified)	144 to 146
CCC([O-])=C(C(=O)OCc1ccc([N+](=O)[O-])cc1)N1C(=O)CC1[N+](CC)(CC)CC (stereo unspecified)	110 to 112
CCOCc1nc2c(N)nc(C)c(C)c2n1CCNC(=O)N1CCOCC1	179 to 181
COc1cc2c(c(OC)c1OC)C(=O)CC2	114 to 115
NC(=S)NCCN1CCC(Nc2nc3ccccc3n2Cc2ccc(F)cc2)CC1	186
CN(CCC12CC3CC(CC(C3)C1)C2)C(=O)NCCCc1ccncc1	99 to 109
CCCC1=C(C#N)C(c2ccccc2Cl)c2c(n[nH]c2-c2cccc3ccccc23)N1 (stereo unspecified)	254
Cc1cc2[nH]c(=O)c3cnc(O)cc3n2n1	> 300
Cc1[nH]c(C#N)c(C)c1-c1nc2ccc(Oc3ccccc3)cc2[nH]1	278 to 280
Cc1[nH]ncc1C(=O)O	223
CS(=O)(=O)N[C@H]1CC[C@H](CCN2CCC(c3cccc4c3CCO4)CC2)CC1	152
CCOC(=O)C1=C(C(=O)OCC)C(c2cccc([N+](=O)[O-])c2)C(C(=O)OCC)=C(CC)N1 (stereo unspecified)	153
CC(SC1COC(c2ccc(C(=O)Nc3ccc(C#N)c(C#N)c3)cc2)OC1)C(O)(Cn1cncn1)c1ccc(F)cc1F (stereo unspecified)	182
CCN1C(=O)COc2ccc(-c3nn[nH]c3-c3cccc(C)n3)cc21	187
CCOC(=O)c1csc(-c2ccc3c(=O)n(CC(C)C)c(CNC(=O)OC(C)(C)C)c(-c4ccccc4)c3c2)n1	170 to 171
CC1Sc2c(C(=O)O)c(=O)c3cc(F)c(N4CCNCC4)cc3n21 (stereo unspecified)	225 to 227
COc1ccc(CC2(C)CN(C(c3ccccc3)c3ccccc3)CCN2C(C)=O)cc1OC (stereo unspecified)	116

SMILES	melting point [°C]
COc1ccc(N2CCN(c3ccc(S(=O)(=O)N[C@@H](Cc4ccccc4)C(=O)O)cc3)CC2)cc1	203 to 205
N#Cc1ccc2c(c1)CCCC2(O)c1ccns1 (stereo unspecified)	182 to 184
CCCCCCCCCCCCCCCCCCOc1cc(C(=O)O)cc(C(=O)N(CC(=O)O)CC(=O)O)c1	108 to 112
Nc1c(Cl)c(C(F)(F)F)nn1-c1c(Cl)cc(C(F)(F)F)cc1Cl	99 to 100
OC(c1ccc2c(c1)COCO2)c1cn(C(c2ccccc2)(c2ccccc2)c2ccccc2)cn1 (stereo unspecified)	165 to 167
Clc1ccc(-c2csc(-c3cnccc3N3CCOCC3)n2)cc1	169
CCC(=O)C(CCCCCCOc1ccc(S(N)(=O)=O)cc1)C(=O)CC	86 to 87
CC1(C)CC(=S)Nc2ccc(-c3cccc(F)c3)cc21	209 to 211
CC(=O)C1=C(C)N=C(c2ccccc2)NC1c1cccc([N+](=O)[O-])c1 (stereo unspecified)	154 to 155
CN(C)N(CCC(N)=O)C(N)=O	173 to 174
CC1c2ccccc2-c2cc(Br)ccc2N1S(=O)(=O)c1ccc(O)cc1 (stereo unspecified)	201 to 203
CCCN(Cc1ccc(-c2ccccc2-c2nnn[nH]2)cc1)c1ncccc1C(=O)O	202 to 204
Cc1nnc2nc(-c3cccc(C(F)(F)F)c3)ccn12	232 to 234
Cc1ccc(N2CN(CCN(C)C)CN(C)C2=S)c(C)c1	65 to 70
Nc1scc2c(-c3n[nH]c(=O)o3)nn(-c3ccccc3)c(=O)c12	> 250
COc1ccc2cc([C@H](C)C(=O)OCCCN3C(=O)OC[C@H]3C(C)(C)S)ccc2c1	118
Clc1ccc2c(c1)c(-c1ccccc1)cc1nncn12	265 to 266
CCOc1ccccc1N(C(=O)C(N)=O)c1nc(N(CC)CC)nc(N(CC)CC)n1	97 to 100
Cc1oc(-c2ccccc2)nc1COc1ccc(C(=O)c2ccccc2O)cc1	121 to 122
Cc1cc(OCC2CO2)c2c3c(c(=O)oc2c1)CCCC3 (stereo unspecified)	164 to 165
CCCCCCCCCCCCNc1ccnc(Cl)n1	80 to 82
CC(C)c1ccc(C(=O)C2=C(O)C(=O)N(c3ccc(Sc4ccc([N+](=O)[O-])cc4)nn3)C2c2ccc(OC(F)(F)F)cc2)cc1 (stereo unspecified)	194 to 209
Cc1cc(OCc2ccccc2)cc(OCC2CCCCC2)c1C(=O)O	127 to 128

Second part, the molecule after the results:

melting point [°C]	SMILES
219 to 220	C#Cc1cnc2c(NC(=O)c3c(Cl)cccc3Cl)cccc2c1
185 to 187	CC(C)N(Cc1c(-c2ccccc2)sc(N)c1C(=O)c1ccc(Cl)cc1)C(C)C
160	O=c1[nH]c2ccc(Cl)cc2n1CCO
313	COc1cc(C(=O)c2ncc3ccc(C(=O)O)cn23)ccc1[N+](=O)[O-]
72 to 74	CCCCC1OC(=O)c2cc(NC(C)C)ccc21 (stereo unspecified)
175 to 176	CCc1cc(C=Cc2ccccc2O)on1
140 to 141	CN(CCC(=O)Nc1ccc2[nH]ncc2c1)Cc1ccccc1
179 to 180	NC(=S)Nc1ccc2ccccc2n1
176 to 178	Cc1cc(Oc2ccc(NC(=O)N(C)C)cc2)nc(Cl)n1
182 to 184	CN1CCN(Cc2c(Cl)cccc2Cl)C(C2=NCCN2)C1 (stereo unspecified)
87	O=c1[nH]nc(-c2c(Cl)ccc3cc(Cl)cnc23)o1
180 to 183	O=C(O)COc1ccc2c(=O)c3c(F)cccc3oc2c1
119 to 120	Cc1cc(N2CCN(Cc3ccc(F)cc3)C2=O)sc1C(=O)NCc1cccnc1
169 to 170	CCC(C)(C)NC(Nc1ccc2c(c1)OCO2)=C(C#N)S(=O)(=O)c1ccc(Cl)cc1
116 to 118	COc1ccc(-c2cn3c(n2)CCC3)cc1
161	CC(C)c1cccc(C(C)C)c1NC(=O)CNC(c1ccccc1)c1ccc(F)cc1 (stereo unspecified)
124 to 125	CCOC(=O)c1c(-c2cccs2)nn(CC)c(=O)c1Nc1cccnc1
110 to 111	O=CN1CCN(c2ccc3cc(F)ccc3n2)CC1
238 to 240	Cc1cc2c3c(ccc2cc1Br)OC(=O)C3
94 to 95	COc1ccc(C(=O)C2(Br)CCCCC2)c(Cl)c1Cl
151 to 153	CCOc1cccc(-c2ccc(C3=CCN(S(=O)(=O)CC(=O)NO)CC3)cc2C)c1
159 to 160	COc1cc2c(C)c(C)sc2c(Cl)c1Cl
175	COc1ccc(S(=O)(=O)N2C(=O)C(NCCC(=O)OC(C)(C)C)(c3ccccc3OC)c3cc(Cl)ccc32)c(OC)c1 (stereo unspecified)
193 to 194	COc1ccc(CC(C)=NO)cc1S(N)(=O)=O
79 to 80	COC(=O)C(c1ccc(-c2ccccc2F)cc1)S(C)=O (stereo unspecified)
277 to 279	CCCn1ncc2c(=O)[nH]c(-c3cc(C(=O)O)ccc3OCC)nc21
250 to 252	O=C(NCc1ccc(Cl)cc1)c1cnc2c(OCCO)cc(CCCO)cc2c1O

melting point [°C]	SMILES
132 to 134	CCCNC(=O)C(C)(C)Oc1ccc(-c2ccc(N3CCCCC3)cc2)cc1
183 to 185	CC(C)c1cccc(C(C)C)c1NC(=O)NCC1CCc2ccccc21 (stereo unspecified)
95 to 96	Cc1sc2ccccc2c1C=O
77	CC(NC(N)=S)c1ccc(NS(C)(=O)=O)cc1 (stereo unspecified)
70 to 73	COC(=O)CCNc1ccccc1CNC(=O)C1Cc2ccccc2N1S(=O)(=O)c1ccc(-c2ccc(F)cc2Cl)cc1 (stereo unspecified)
127 to 129	COc1ccc(C(C)=O)c(OCCCC(=O)O)c1
201 to 204	COC(=O)C1=C(C)NC2=C(C(=O)CN(Cc3ccccc3)C2)C1c1ccccc1C (stereo unspecified)
265 to 266	COC(=O)c1cccc(-c2nc(C(N)=O)c3[nH]c(=O)n(-c4ccccc4OC)c3n2)c1
129	OCCON=Cc1cnc2ccccc2c1
193	COC(=O)C1=NNC(C)=C(C(=O)OC(C)C)C1c1cccc([N+](=O)[O-])c1 (stereo unspecified)
278 to 280	Cc1cc(-c2ccc(Cl)cc2)nn2c(=O)[nH]nc12
125 to 126	CC(=O)Nc1ccc(C(=O)Nc2ccccc2NC(=O)CNC(=O)OC(C)(C)C)cc1
146 to 147	CCOC(=O)N/N=C/c1ccc(OC)c(OC2CCCC2)c1
136 to 138	CCOC(=O)CCc1cccc(C2COc3c(C)c(C)c(NC(=O)CC(C)(C)C)c(C)c32)c1 (stereo unspecified)
155 to 157	COc1ccc2c(c1)C(Cc1ccnc(F)c1)(Cc1ccnc(F)c1)c1ccccc1C2=O
124 to 126	CNc1ccccc1C(O)c1ccccc1 (stereo unspecified)
111	CC(=O)NCCSc1c(Cl)cc(N)c(C)c1N
191 to 192	COc1cc(NC(=N)Nc2ccc3c4c(cccc24)CC3)cc2ccccc12
199 to 202	COC(=O)CSc1nc(N2CCN(c3ccccn3)CC2)ncc1[N+](=O)[O-]
129 to 131	Cc1ccc2oc(=O)c(C(=O)O)c(-c3ccccc3)c2c1
79.5 to 82	O=C1CSCc2cc(Cl)ccc21
69 to 70	CCCCOC(=O)C1=C(C)NC(C)=C(C(=O)OC)C1c1cccc([N+](=O)[O-])c1 (stereo unspecified)
238 to 240	Cc1ccc(NC(=O)c2ccc3c(c2)C(=O)N(c2c(Cl)cccc2Cl)C3=O)cc1C
74 to 77	O=C1c2cccc(NCCO)c2OC12CC2
87 to 89	COc1ccc(-c2cccc(COCCc3cccc(NC(N)=O)c3)c2)cc1
106	CCOC(=O)NS(=O)(=O)c1cc(C(C)=O)ccc1Cl
137 to 139	COC(=O)Nc1ccc(Cl)c(F)c1I
